Results as given in article PMC7515484, “Sphingosine kinase 2 inhibitor ABC294640 suppresses neuronal excitability and inhibits multiple endogenously and exogenously expressed voltage-gated ion channels in cultured cells” (Channels, 2020).

Assays:
KV4.2 = target: T1, KV4.2 (Homo sapiens, UniProt Q9NZV8); assay: whole-cell patch clamp, persistent current, transfected HEK293T cells; type: cell-based
T1 construct: gene KCND2
T1 sequence (Q9NZV8 1-630): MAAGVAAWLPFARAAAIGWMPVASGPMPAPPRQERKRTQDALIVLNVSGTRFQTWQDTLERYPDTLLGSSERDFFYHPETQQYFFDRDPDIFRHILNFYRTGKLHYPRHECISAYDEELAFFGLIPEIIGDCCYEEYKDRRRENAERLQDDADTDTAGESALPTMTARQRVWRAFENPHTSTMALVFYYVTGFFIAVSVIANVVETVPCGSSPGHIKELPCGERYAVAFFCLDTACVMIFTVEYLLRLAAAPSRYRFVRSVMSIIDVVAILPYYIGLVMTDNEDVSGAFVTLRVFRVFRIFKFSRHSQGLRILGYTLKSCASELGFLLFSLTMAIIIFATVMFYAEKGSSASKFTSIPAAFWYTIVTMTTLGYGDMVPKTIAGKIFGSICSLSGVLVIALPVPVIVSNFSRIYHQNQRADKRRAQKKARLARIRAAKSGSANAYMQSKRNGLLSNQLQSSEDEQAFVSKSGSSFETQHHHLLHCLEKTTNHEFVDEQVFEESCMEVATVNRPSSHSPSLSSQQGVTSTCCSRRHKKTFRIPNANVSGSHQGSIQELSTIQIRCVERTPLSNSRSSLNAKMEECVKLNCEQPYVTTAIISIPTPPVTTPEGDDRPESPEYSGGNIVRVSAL

KV1.4 = target: T2, KV1.4 (Homo sapiens, UniProt P22459); assay: as above; type: cell-based
T2 construct: gene KCNA4; human KCNA4 cDNA in pCMV3, expressed in HEK293T cells
T2 sequence (P22459 whole entry): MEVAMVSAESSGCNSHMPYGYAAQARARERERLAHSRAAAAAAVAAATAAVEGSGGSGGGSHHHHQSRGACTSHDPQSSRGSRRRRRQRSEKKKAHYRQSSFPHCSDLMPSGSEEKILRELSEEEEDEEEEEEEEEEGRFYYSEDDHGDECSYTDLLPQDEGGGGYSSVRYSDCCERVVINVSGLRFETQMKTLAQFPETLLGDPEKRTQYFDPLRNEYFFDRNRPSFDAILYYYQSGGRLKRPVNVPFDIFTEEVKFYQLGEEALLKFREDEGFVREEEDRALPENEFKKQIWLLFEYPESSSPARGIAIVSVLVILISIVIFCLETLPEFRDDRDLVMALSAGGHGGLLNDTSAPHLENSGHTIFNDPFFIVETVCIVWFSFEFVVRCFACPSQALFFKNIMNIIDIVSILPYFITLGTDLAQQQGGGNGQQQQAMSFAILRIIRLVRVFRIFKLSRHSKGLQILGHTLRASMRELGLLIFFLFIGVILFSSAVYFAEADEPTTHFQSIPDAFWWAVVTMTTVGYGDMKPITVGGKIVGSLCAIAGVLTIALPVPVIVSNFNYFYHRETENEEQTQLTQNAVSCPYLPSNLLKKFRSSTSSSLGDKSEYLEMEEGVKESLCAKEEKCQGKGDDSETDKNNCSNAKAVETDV

## O=C(NCc1ccncc1)C12CC3CC(C1)CC(c1ccc(Cl)cc1)(C3)C2 [ABC294640]
KV4.2
  IC50: 4.77 ± 0.68 µM
KV1.4
  IC50: 2.76 ± 0.28 µM
